Here are results for 14 compounds from US12037329B2, “SphK inhibitors and methods of making and using same” (Washington University, priority 2021, dated 2024).

Entries after “also recorded” stand apart in the source; their conditions may differ. Counter-ions that a name gives are not always drawn. Like-named read-outs stand apart in the source and are kept apart here.

In data set [1] the target is T1, SphK2 (Homo sapiens (Human), UniProt Q9NRA0). In words: ADP-Glo kinase assay, SphK2. The class given is biochemical. The note with it: for IC50: ADP-Glo assay, 50 μM ATP, recombinant human SphK2; for selectivity/specificity for SphK2 over SphK1: 125 μM of each compound, SphK2 versus SphK1, FIG. 5. An excerpt:
The bioluminescence-based kinase assay such as ADP-Glo assay measures ADP formed from a kinase reaction with a luciferase. Upon the completion of a kinase reaction, the remaining ATP is depleted, the ADP produced in the kinase reaction is then converted to ATP and the detection is based on a sensitive and robust bioluminescence reaction. It has a broad linear range of ATP concentrations and high dynamic range. To determine the inhibition activity of the compounds, the ADP-Glo kinase assay was used which was able to detect down to 20% of 1 μM ATP to ADP conversion (FIG. 4A).
ADP-Glo (Promega, Madison, WI) kinase assay were used to evaluate the kinase activity of SphK. ATP to ADP standard curves were prepared in the kinase buffer to assess the linearity of the assay in order to calculate the amount of ADP produced in each tested conditions (FIG. 4A). SB10 (tenfold signal to background ra-tio) of SphK was also determined to evaluate the enzyme perfor-mance and to optimize the kinase reaction condition in this system. In brief, for SphK2, […], 100 μM of D-erythro-Sphingosine (Tocris Bioscience, Minneapolis, MN), and 2 ng of recombinant human SphK2 (R&D Systems, Minneapolis, MN) with desired concentration of each synthesized compound were used for SphK2 kinase reaction. For SphK1, exact same reaction condition was used except 0.5 ng of recombinant human SphK1 was used.
To evaluate the SphK selectivity of each compound, 125 μM of each compound in reaction buffer ([…] Tris, pH 8.0, […] MgCl2, and 0.1 mg/mL BSA) with 5% DMSO was incubated with either SphK1 or SphK2 in a 384-well solid white low volume microplate (Corning, Corning, NY), and the reaction was initiated by adding mixture of ATP and D-erythro-Sphingosine to a total volume of 5 μL, after 1 h incubation at room temperature with gentle shaking, the reaction was stopped by adding equal volume of ADP-Glo buffer and incubated for another hour to remove excess amount of ATP from the reaction. Afterwards, 10 μL of kinase detection reagent was added, mixed, and incubated for 30 min under dark. Luminescence output was recorded using a SpectraMax M5 Multi-Mode Microplate Readers (Molecular Devices, San Jose, CA), an integration time of 500 ms was used. All reactions were performed in triplicate. The enzyme activity of SphK in the presence of each compound was normalized to the no treatment control. […] The final data was calculated using Prism 7.0 (GraphPad Software, La Jolla, CA), IC50 was determined using Nonlinear regression (curve fit) four parameters dose-response calculations.

The target of data set [2] is T1, SphK2. The note with it: cited from earlier work.
Data set [3] deals with U-251 MG human glioblastoma cells. The experiment in a line: U-251 MG cell viability, Hoechst 33258/propidium iodide imaging, 125 μM, 24 h. The class given is cell-based. The method, then:
Cells were seeded into a 96-well microplate (Corning, Corning, NY) at 3000 cells/well and incubated for approximately 16 h. […] Cells were imaged using MetaXpress High-Content Image Acquisition and Analysis Software 6.1 and ImageXpress Micro XLS Wide-field High-Content Analysis System (Molecular Devices, San Jose, CA). Images were taken with a Nikon 10 CFI Plan Fluor objective. For all samples, triplicated measurements were performed.

In data set [4] the test system is U-251 MG cells. In words: CellTiter96 MTS cell viability dose response, U-251 MG. The class given is cell-based, human. The note with it: read-out: IC50 (cell viability). The procedure:
The anti-tumor activity of these inhibitors was further examined at different doses.
(§1) Cell viability was determined using CellTiter96 MTS Assay and compared to DMSO treated control cells. IC50 values were calculated by non-linear regression analysis of the dose-response curve using GraphPad Prism version 8.00 for Windows (GraphPad Software).

The test system of data set [5] is MDA-MB-453 cells. The experiment in a line: CellTiter96 MTS cell viability dose response, MDA-MB-453. Format: cell-based. The note with it: Homo sapiens, MD-MB-453 (MDA-MB-453) cells. The method, then:
(§2) The anti-tumor activity of these inhibitors was also examined in different cell types. U-251 MG cells, SiHa cells, BT20 cells, and MDA-MB-453 cells were treated with increasing dose (10^−10 M to 10^−4 M) of SphK2 inhibitor TZ72-53 (21b), and dose response curves were generated (FIG. 9). IC50 values of 21b in the four different cell lines were calculated by non-linear regression analysis of the dose-response curve and are shown in Table 5 below.
as §1

Data set [6] relates to BT20 cells. In words: CellTiter96 MTS cell viability dose response, BT20. Format: cell-based. The note with it: Homo sapiens, BT-20. The method, then:
as §2, §1

For data set [7], the system named is SiHa cells. The experiment in a line: CellTiter96 MTS cell viability dose response, SiHa. The class given is cell-based. The note with it: Homo sapiens. The method, then:
as §2, §1

The target of data set [8] is SphK1 (Homo sapiens (Human), UniProt Q9NYA1). The note with it: cited from earlier work.
Sequence of SphK1 (Q9NYA1 whole entry): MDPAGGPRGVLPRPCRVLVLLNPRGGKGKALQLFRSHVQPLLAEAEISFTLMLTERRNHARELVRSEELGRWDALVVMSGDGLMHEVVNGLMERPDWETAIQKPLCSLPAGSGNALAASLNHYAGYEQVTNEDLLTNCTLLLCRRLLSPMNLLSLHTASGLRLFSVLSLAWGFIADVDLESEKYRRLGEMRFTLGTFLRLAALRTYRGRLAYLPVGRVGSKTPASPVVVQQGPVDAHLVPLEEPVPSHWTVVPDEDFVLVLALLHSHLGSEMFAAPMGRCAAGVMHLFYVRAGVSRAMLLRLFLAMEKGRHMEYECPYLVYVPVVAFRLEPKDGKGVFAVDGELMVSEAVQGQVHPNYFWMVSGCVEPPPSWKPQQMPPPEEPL

T1 sequence (Q9NRA0 whole entry): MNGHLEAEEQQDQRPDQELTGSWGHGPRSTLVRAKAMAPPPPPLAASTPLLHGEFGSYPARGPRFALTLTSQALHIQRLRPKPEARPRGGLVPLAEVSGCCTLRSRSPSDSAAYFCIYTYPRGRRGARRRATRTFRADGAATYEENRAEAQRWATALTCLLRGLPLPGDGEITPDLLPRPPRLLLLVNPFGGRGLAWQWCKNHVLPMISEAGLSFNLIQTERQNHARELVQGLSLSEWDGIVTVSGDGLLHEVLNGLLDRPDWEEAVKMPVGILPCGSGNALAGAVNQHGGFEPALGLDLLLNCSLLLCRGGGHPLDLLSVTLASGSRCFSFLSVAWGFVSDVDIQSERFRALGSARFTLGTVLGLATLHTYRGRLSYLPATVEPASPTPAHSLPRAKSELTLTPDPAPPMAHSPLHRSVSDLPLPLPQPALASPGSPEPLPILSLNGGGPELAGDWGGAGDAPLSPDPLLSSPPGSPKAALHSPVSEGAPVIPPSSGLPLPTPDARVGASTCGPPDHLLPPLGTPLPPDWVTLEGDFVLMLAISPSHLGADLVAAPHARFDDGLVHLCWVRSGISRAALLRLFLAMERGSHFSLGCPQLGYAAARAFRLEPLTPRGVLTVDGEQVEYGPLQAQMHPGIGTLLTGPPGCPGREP

`N=C(N)N1CCC[C@H]1Cc1nc(-c2ccc(Nc3nc(-c4cccc(C(F)(F)F)c4)cs3)cc2)no1` [Compound 13, reference compound]: the IC50 in data set [1] was found to be 0.28 µM. Besides, the Ki in data set [2] (SphK2-selective inhibitors) is 0.09 µM.
For `Cl.N=C(N)N1CCC[C@H]1Cc1nc(-c2ccc(Cn3cc(-c4ccccc4)nn3)cc2)no1` [Compound 21a, (S)-2-((3-(4-((4-Phenyl-1H-1,2,3-triazol-1-yl)methyl)phenyl)-1,2,4-oxadiazol-5yl)methyl)pyrrolidine-1-carboximidamide hydrochloride], the “antitumor activity / reduction of U-251 MG cell viability (in words)” value (from here on “antitumor activity / reduction”) in data set [3] (hydrochloride) is reported as “high anti-tumor activity; also recorded: significant reduction”. Moreover, the IC50 in data set [1] turned out to be 0.396 µM; in data set [4] (Homo sapiens, U-251, 72 h), 17 µM.
Take `Cl.N=C(N)N1CCC[C@H]1Cc1nc(-c2ccc(Cn3cc(-c4ccc(C(F)(F)F)cc4)nn3)cc2)no1` [Compound 21b, (S)-2-((3-(4-((4-(4-(Trifluoromethyl)phenyl)-1H-1,2,3-triazol-1-yl)methyl)phenyl)-1,2,4-oxadiazol-5-yl)methyl)-pyrrolidine-1-carboximidamide hydrochloride]: the IC50 in data set [5] worked out at 35.8 µM; in data set [6], 21.3 µM; in data set [7] it was 13 µM; in data set [4] (Homo sapiens, U-251 MG cells, 72 h, MTS), 11 µM. Further, the “antitumor activity / reduction” value in data set [3] (hydrochloride) is “high anti-tumor activity; also recorded: significant reduction”. Besides, in data set [1], the “SphK2 inhibitory activity (in words)” value is “no inhibitory activity”. Also, the “selectivity/specificity for SphK2 over SphK1” value (“selectivity/specificity” for short) in data set [1] (hydrochloride) is listed as “lowest specificity; also recorded: no selectivity”.
As for `COc1ccc(-c2cn(Cc3ccc(-c4noc(C[C@@H]5CCCN5C(=N)N)n4)cc3)nn2)cc1.Cl` [Compound 21e, (S)-2-((3-(4-((4-(4-Methoxyphenyl)-1H-1,2,3-triazol-1-yl)methyl)phenyl)-1,2,4-oxadiazol-5-yl)methyl)pyrrolidine-1-carboximidamide hydrochloride], the “antitumor activity / reduction” value in data set [3] was “comparable reduction”. Also, in data set [1] (hydrochloride), the “selectivity/specificity” value is given as “high selectivity; also recorded: highest specificity”. Further, the IC50 in data set [1] was 0.64 µM.
With `Cl.N=C(N)N1CCC[C@H]1c1nc(-c2ccc(Cn3cc(-c4ccc(C(F)(F)F)cc4)nn3)cc2)no1` [Compound 25b, (S)-2-((3-(4-((4-(4-(Trifluoromethyl)phenyl)-1H-1,2,3-triazol-1-yl)methyl)phenyl)-1,2,4-oxadiazol-5-yl)pyrrolidine-1-carboximidamide hydrochloride], the 50% inhibitory concentration (IC50) came to 0.359 µM in data set [1] and 12.3 µM in data set [4] (U-251 MG cells, 72 h, MTS).
In the case of `Cl.N=C(N)N1CCC[C@H]1c1nc(-c2ccc(Cn3cc(-c4ccc(C(F)(F)F)cc4)nn3)cc2)no1` [Compound 25b], the “antitumor activity / reduction” value in data set [3] (hydrochloride) is listed as “high anti-tumor activity; also recorded: higher antitumor activity; also recorded: tremendously decreased; also recorded: significant reduction”.
With `COc1ccc(-c2cn(Cc3ccc(-c4noc([C@@H]5CCCN5C(=N)N)n4)cc3)nn2)cc1.Cl` [Compound 25d, (S)-2-((3-(4-((4-(4-Methoxyphenyl)-1H-1,2,3-triazol-1-yl)methyl)phenyl)-1,2,4-oxadiazol-5-yl)-pyrrolidine-1-carboximidamide hydrochloride], the IC50 in data set [1] was 0.266 µM; in data set [4] (U-251 MG cells, 72 h, MTS) it was 78.2 µM.
With `COc1ccc(-c2cn(Cc3ccc(-c4noc([C@@H]5CCCN5C(=N)N)n4)cc3)nn2)cc1.Cl` [Compound 25d], the “antitumor activity / reduction” value in data set [3] is “comparable reduction”.
With `Cl.N=C(N)C1(c2nc(-c3ccc(Cn4cc(-c5ccccc5)nn4)cc3)no2)CC1` [Compound 29a, 1-(3-(4-((4-Phenyl-1H-1,2,3-triazol-1-yl)methyl)phenyl)-1,2,4-oxadiazol-5-yl)cyclopropanecarboximidamide hydrochloride], in data set [1], the “selectivity/specificity” value is recorded as “highly selective” and the IC50 was determined as 0.261 µM.
As for `Cn1cc(-c2cn(Cc3ccc(-c4noc(C5(C(=N)N)CC5)n4)cc3)nn2)cn1` [Compound 29b, hydrochloride], the “selectivity/specificity” value in data set [1] is recorded as “highly selective”.
As to `Cn1nccc1-c1cn(Cc2ccc(-c3noc(C4(C(=N)N)CC4)n3)cc2)nn1` [Compound 29b, hydrochloride], the IC50 in data set [1] is 0.269 µM.
For the compound `N=C(N)C1(c2nc(-c3ccc(Cn4cc(C5CC5)nn4)cc3)no2)CC1` [Compound 29c, 1-(3-(4-((4-Cyclopropyl-1H-1,2,3-triazol-1-yl)methyl)phenyl)-1,2,4-oxadiazol-5-yl)cyclopropanecarboximidamide hydrochloride], in data set [1], the IC50 turned out to be 0.717 µM.
Turning to `Cc1ccc(S(=O)(=O)Nc2ccccc2C=Nc2ccccc2NS(=O)(=O)c2ccc(C)cc2)cc1` [MP-A08], the Ki in data set [2] (human SphK2) was 6.9 ± 0.8 µM; in data set [8], 27 ± 3 µM.
Take “ABC294640 [Compound 7, reference compound]”: in data set [3] (versus no treatment control), the “reduction of viability of U-251 MG cells” value is recorded as “approximately 50%”.
